In publication PMC10066365, “Nemacol is a small molecule inhibitor of C. elegans vesicular acetylcholine transporter with anthelmintic potential” (Nature Communications, 2023):
Where “and” joins values, the source holds several entries; their conditions need not be identical. Equal values may be shown once. Read-outs that look alike come from different tables or passages of the source.

Tests used:
[1] = system: Dirofilaria immitis L3/L4; assay: Dirofilaria immitis L3/L4 motility assay (DiroImager, 72 h); conditions: Dirofilaria immitis L4
C. elegans = C. elegans motor phenotype scoring on solid media (Punc/jerky-unc, coiled, paralyzed), wild-type young adults; format: in vivo, Caenorhabditis elegans; conditions: for any phene, mean % fraction of young adults exhibiting any phenotype (coiled, jerky-Unc or paralyzed) / atypical locomotion (number of animals) / coiled (number of animals) / no phene (number of animals) / paralyzed (number of animals): one hour; for any phene, mean % fraction of young adults exhibiting any phenotype (coiled, jerky-Unc or paralyzed): mean of three biological replicates; for atypical locomotion (number of animals) / coiled (number of animals) / no phene (number of animals) / paralyzed (number of animals): young adults, 20 animals per trial, single replicate counts; for EC50: Caenorhabditis elegans, read-out: C. elegans - motor disruption EC50
[2] = system: Dirofilaria immitis microfilariae; assay: Dirofilaria immitis microfilariae immobility assay (DiroImager, 72 h); conditions: Dirofilaria immitis microfilariae
Experimental: We conducted experiments with the Missouri isolate of Dirofilaria immitis in two labs. In the first set of experiments, shown as part of Fig. 3c, D. immitis microfilariae and larval stage 3 (L3) worms were assayed in the laboratories of Bayer Animal Health GmbH (Monheim, Germany). For microfilariae immobility assays, approximately 250 freshly purified microfilariae were cultured in single wells of a 96-well microtiter plate containing supplemented RPMI 1640 medium[68],[69]. […] Microfilariae exposed to medium substituted with 1% DMSO were used as negative controls. Motility of microfilariae was evaluated after 72 h of drug exposure using an image-based approach—DiroImager, developed by Bayer Technology Services. As described in detail in refs. [68],[69], the DiroImager is an automated high-throughput platform that allows for high-resolution optical imaging of an entire 96-well microtiter plate.

Pristionchus pacificus = Pristionchus pacificus motor disruption dose-response on solid media, 1 h; conditions: for mean % any phene (coiled, jerky-Unc or paralyzed): Pristionchus pacificus young adults, mean of three biological replicates; for EC50: Pristionchus pacificus, 1 h, read-out: P. pacificus motor disruption EC50
[3] = conc 3.75, observed at one hour
[4] = any motor phenotype after 1 h on solid media, ± 95% CI

| Structure (SMILES) | % effect (motility), DIROIM L4 ([1]; 2 µM) [%] | % effect (motility), DIROIM L4 ([1]; 10 µM) [%] | % effect (motility), DIROIM L4 ([1]; 50 µM) [%] | any phene, mean % fraction of young adults exhibiting any phenotype (coiled, jerky-Unc or paralyzed) (C. elegans; 3.75uM) [%] | atypical locomotion (number of animals) (C. elegans; 3.75uM) | coiled (number of animals) (C. elegans; 3.75uM) | no phene (number of animals) (C. elegans; 3.75uM) | paralyzed (number of animals) (C. elegans; 3.75uM) | any phene, mean % fraction of young adults exhibiting any phenotype (coiled, jerky-Unc or paralyzed) (C. elegans; 15uM) [%] | atypical locomotion (number of animals) (C. elegans; 15uM) | coiled (number of animals) (C. elegans; 15uM) | no phene (number of animals) (C. elegans; 15uM) | paralyzed (number of animals) (C. elegans; 15uM) | any phene, mean % fraction of young adults exhibiting any phenotype (coiled, jerky-Unc or paralyzed) (C. elegans; 60uM) [%] | atypical locomotion (number of animals) (C. elegans; 60uM) | coiled (number of animals) (C. elegans; 60uM) | no phene (number of animals) (C. elegans; 60uM) | paralyzed (number of animals) (C. elegans; 60uM) | % effect (motility), DIROIM MF ([2]; 0.016 µM) [%] | % effect (motility), DIROIM MF ([2]; 0.08 µM) [%] | other results |
| --- | --- | --- | --- | --- | --- | --- | --- | --- | --- | --- | --- | --- | --- | --- | --- | --- | --- | --- | --- | --- | --- |
| c1ccc(N2CCN(CC3CCCCC3)CC2)cc1 [Nemacol-12] | 6 | 0 | 5 | 16.1842 | 0 and 7 and 11 | 0 and 1 | 20 and 11 and 9 | 0 | 39.1667 | 4 and 2 and 0 and 1 and 17 and 10 | 0 and 3 and 8 | 16 and 18 and 20 and 19 and 0 | 0 and 2 | 84.1667 | 11 and 14 and 7 and 10 and 2 and 1 | 3 and 4 and 5 and 6 and 14 and 19 | 6 and 2 and 7 and 4 and 0 | 0 and 1 and 4 | 0 | 0 | EC50 (C. elegans; 1 h): 18.8 ± 17.5 µM; % effect (motility), DIROIM MF ([2]; 0.4 µM): 0%; % effect (motility), DIROIM MF ([2]; 2 µM): 0%; % effect (motility), DIROIM MF ([2]; 10 µM): 0%; mean % any phene (coiled, jerky-Unc or paralyzed) (Pristionchus pacificus; [3]): 0%; mean % any phene (coiled, jerky-Unc or paralyzed) (Pristionchus pacificus; conc 15, observed at one hour): 38.3333%; mean % any phene (coiled, jerky-Unc or paralyzed) (Pristionchus pacificus; conc 60, observed at one hour): 98.3333%; EC50 (Pristionchus pacificus): 17.3 ± 6.3 µM |
| O=[N+]([O-])c1ccc(N2CCN(c3ccccc3O)CC2)cc1 [Nemacol-13] | 0 | 0 | 0 | 0.8333 | 0 and 1 | 0 | 20 and 19 | 0 | 2.5 | 0 and 2 and 1 | 0 | 20 and 18 and 19 | 0 | 20 | 0 and 11 and 13 | 0 | 20 and 9 and 7 | 0 | 0 | 0 | EC50 (C. elegans; [4]): > 60 µM; % effect (motility), DIROIM MF ([2]; 0.4 µM): 0%; % effect (motility), DIROIM MF ([2]; 2 µM): 0%; % effect (motility), DIROIM MF ([2]; 10 µM): 0%; mean % any phene (coiled, jerky-Unc or paralyzed) (Pristionchus pacificus; [3]): 0%; mean % any phene (coiled, jerky-Unc or paralyzed) (Pristionchus pacificus; conc 15, observed at one hour): 0%; mean % any phene (coiled, jerky-Unc or paralyzed) (Pristionchus pacificus; conc 60, observed at one hour): 9.167%; EC50 (Pristionchus pacificus): > 60 µM |
| O=[N+]([O-])c1cccc(CN2CCN(C3CCCCC3)CC2)c1 [Nemacol-14] | 0 | 5 | 5 | 0.8333 | 0 | 0 | 20 and 19 | 0 and 1 | 0 | 0 | 0 | 20 | 0 | 6.667 | 0 and 2 | 0 and 2 | 20 and 18 and 16 | 0 | 0 | 0 | EC50 (C. elegans; [4]): > 60 µM; % effect (motility), DIROIM MF ([2]; 0.4 µM): 0%; % effect (motility), DIROIM MF ([2]; 2 µM): 0%; % effect (motility), DIROIM MF ([2]; 10 µM): 0%; mean % any phene (coiled, jerky-Unc or paralyzed) (Pristionchus pacificus; [3]): 0%; mean % any phene (coiled, jerky-Unc or paralyzed) (Pristionchus pacificus; conc 15, observed at one hour): 0.8333%; mean % any phene (coiled, jerky-Unc or paralyzed) (Pristionchus pacificus; conc 60, observed at one hour): 12.5%; EC50 (Pristionchus pacificus): > 60 µM |
| O=[N+]([O-])c1ccc(CN2CCN(C3CCCC3)CC2)cc1 [Nemacol-15] | 5 | 0 | 10 | 0 | 0 | 0 | 20 | 0 | 2.5 | 0 and 1 and 2 | 0 | 20 and 19 and 18 | 0 | 23.3333 | 2 and 1 and 4 and 5 and 9 | 0 | 18 and 19 and 15 and 14 and 11 | 0 and 3 and 2 | 0 | 0 | EC50 (C. elegans; [4]): > 60 µM; % effect (motility), DIROIM MF ([2]; 0.4 µM): 0%; % effect (motility), DIROIM MF ([2]; 2 µM): 0%; % effect (motility), DIROIM MF ([2]; 10 µM): 0%; EC50 (Pristionchus pacificus): > 60 µM |
| O=C(C1CCCCC1)N1CCN(c2ccc([N+](=O)[O-])cc2)CC1 [Nemacol-16] | 0 | 10 | 35 | 0.8333 | 0 and 1 | 0 | 20 and 19 | 0 | 0.8333 | 0 | 0 | 20 and 19 | 0 and 1 | 4.167 | 4 and 1 and 0 | 0 | 16 and 19 and 20 | 0 | 0 | 0 | EC50 (C. elegans; [4]): > 60 µM; % effect (motility), DIROIM MF ([2]; 0.4 µM): 0%; % effect (motility), DIROIM MF ([2]; 2 µM): 0%; % effect (motility), DIROIM MF ([2]; 10 µM): 40%; mean % any phene (coiled, jerky-Unc or paralyzed) (Pristionchus pacificus; [3]): 0% and 3.333%; mean % any phene (coiled, jerky-Unc or paralyzed) (Pristionchus pacificus; conc 15, observed at one hour): 8.333% and 5%; mean % any phene (coiled, jerky-Unc or paralyzed) (Pristionchus pacificus; conc 60, observed at one hour): 36.6667%; EC50 (Pristionchus pacificus): > 60 µM |
| O=C(C1CCCC1)N1CCN(c2ccc([N+](=O)[O-])cc2)CC1 [Nemacol-17] | 0 | 0 | 15 | 0 | 0 | 0 | 20 | 0 | 0 | 0 | 0 | 20 | 0 | 9.167 | 0 and 2 and 3 and 6 | 0 | 20 and 18 and 17 and 14 | 0 | 0 | 0 | EC50 (C. elegans; [4]): > 60 µM; % effect (motility), DIROIM MF ([2]; 0.4 µM): 0%; % effect (motility), DIROIM MF ([2]; 2 µM): 0%; % effect (motility), DIROIM MF ([2]; 10 µM): 0%; mean % any phene (coiled, jerky-Unc or paralyzed) (Pristionchus pacificus; [3]): 2.5%; mean % any phene (coiled, jerky-Unc or paralyzed) (Pristionchus pacificus; conc 15, observed at one hour): 3.333%; mean % any phene (coiled, jerky-Unc or paralyzed) (Pristionchus pacificus; conc 60, observed at one hour): 26.6667%; EC50 (Pristionchus pacificus): > 60 µM |
